Reference: patent publication US20240182460A1, “ALLOSTERIC CHROMENONE INHIBITORS OF PHOSPHOINOSITIDE 3-KINASE (PI3K) FOR THE TREATMENT OF DISEASE” (PETRA PHARMA CORPORATION, priority 2022, published 2024)

Test: Metabolic stability and intrinsic clearance in human liver microsomes (MICS)
Format: in vitro ADME
Conditions: human, microsomes, pH 7.4
Protocol: Metabolic Stability and Intrinsic Clearance in Liver Microsomes (MICS)
One objective of this assay is to measure in vitro metabolic stability of a test compound in liver microsomes of one or more different species. The concentration of a control compound in the reaction system is evaluated by LC/MS/MS for calculating intrinsic clearance of a test compound and estimating the stability of the control compound and test compound in liver microsomes of one or more different species.
Microsomes (MICS). Human Liver Microsomes (HLM), Monkey Liver Microsomes (MKLM), Dog Liver Microsomes (DLM), Rat Liver Microsomes (RLM), and Mouse Liver Microsomes (MLM) are obtained at a concentration of 20 mg/mL protein from commercial sources and stored in a −80° C. freezer. Prior to use, liver microsomes are removed from the freezer and allowed to thaw in a 37° C. water bath and then stored on wet ice.
Stock Solutions. Test Compound (TC) Stock Solutions are prepared in DMSO at a concentration of 10 mM and stored for later use. Positive Control (PC) Stock Solutions of verapamil·HCL (FW: 491.1 g/mol) in DMSO are prepared at a concentration of 10 mM (4.91 mg/mL), and stored at the condition same as the stock solutions of test compounds.
Phosphate Buffer. Phosphate Buffer (100 mM, pH 7.4) is prepared by combining a Solution A and a Solution B as follows.
To prepare Solution A, 7.098 g of disodium hydrogen phosphate was combined with 500 mL of pure water and sonicated to dissolve. To prepare the Solution B, 3.400 g of potassium dihydrogen phosphate was combined with 250 mL of pure water and sonicated to dissolve. Solution A was placed on a stirrer and Solution B was slowly added into Solution A until the pH reached 7.4.
NADPH Solution. A 10 mM NADPH Solution is prepared by dissolving NADPH (MW: 833.4 g/mol) at 8.334 mg/mL in phosphate buffer (100 mM, pH 7.4).
Microsome Master Solution. A Microsome Master Solution is prepared by adding 6.25 μL microsomes (20 mg/mL) to 216.25 μL Phosphate Buffer (100 mM). The final concentration is Phosphate Buffer (100 mM); microsomes (0.5 mg/mL).
Dilution of Stock Solutions. The TC Stock Solutions (10 mM in DMSO) and the PC Stock Solutions (10 mM in DMSO) are diluted by adding 3 μL of the TC Stock Solution or the PC Stock Solution to 297 μL of 50% acetonitrile/50% water.
Incubation. Two separated experiments were performed as follows. a) With Cofactors (NADPH): 25 μL of 10 mM NADPH was added to the incubations. The final concentrations of
microsomes and NADPH were 0.5 mg/mL and 1 mM, respectively. b) Without Cofactors (NADPH): 25 μL of 100 mM Phosphate buffer was added to the incubations. The final concentration of microsomes was 0.5 mg/mL. The mixture was pre-warmed at 37° C. for 10 minutes.
The reaction was started with the addition of 2.5 μL of 100 μM PC solution or TC solutions.
Verapamil was used as PC in this study. The final concentration of test compound or control compound was 1 μM. The incubation solution was incubated in water batch at 37° C.
Reaction Termination. Aliquots of 30 μL were taken from the reaction solution at 0.5, 5, 15, 30 and 60 minutes and added to plates. The reaction was stopped by the addition of 5 volumes of cold acetonitrile and a solution containing 100 nM alprazolam, 200 nM caffeine and 100 nM tolbutamide.
Sampling. The plates containing the terminated reactions were centrifuged at 4000 rpm for 30 minutes. Supernatant of each compound (40 μL) was transferred into a 96-well analysis plate.
Four compound samples are pooled together into one cassette and diluted by adding 160 μL of pure water. All incubations are performed in duplicate.
Analysis and Data Processing. Quantitative LC-MS analysis is performed, and peak areas are determined from extracted ion chromatograms. Percent parent remaining was calculated from peak area of TC or PC. The slope value, k, is determined by linear regression of the natural logarithm of percent parent remaining vs. incubation time curve. […]

| Structure (SMILES) | microsomal CLint at 1 μM |
| --- | --- |
| Cc1cc([C@@H](C)Oc2ccc(Cl)nc2C(=O)NOC(C)(C)C)c2oc(-c3ccc4nn(C)cc4c3)c(C)c(=O)c2c1 [Example 27A, N-tert-Butoxy-6-chloro-3-[(1R)-1-[3,6-dimethyl-2-(2-methylindazol-5-yl)-4-oxo-chromen-8-yl]ethoxy]pyridine-2-carboxamide] | < 50 µL/min/mg |
| Cc1cc([C@@H](C)Oc2ccc(F)nc2C(N)=O)c2oc(-c3ccc4nn(C)cc4c3)cc(=O)c2c1 [Example 19B, 6-Fluoro-3-[(1R)-1-[6-methyl-2-(2-methylindazol-5-yl)-4-oxo-chromen-8-yl]ethoxy]pyridine-2-carboxamide] | < 50 µL/min/mg |
| Cc1cc([C@@H](C)Oc2ccc(Cl)nc2-c2noc(=O)[nH]2)c2oc(-c3cnn4c3COCC4)c(C)c(=O)c2c1 [Example 41A, 3-[6-Chloro-3-[(1R)-1-[2-(6,7-dihydro-4H-pyrazolo[5,1-c][1,4]oxazin-3-yl)-3,6-dimethyl-4-oxo-chromen-8-yl]ethoxy]-2-pyridyl]-4H-1,2,4-oxadiazol-5-one] | < 50 µL/min/mg |
| Cc1cc([C@@H](C)Oc2ccc(Cl)nc2S(N)(=O)=O)c2oc(-c3cnn(C)c3)c(Cl)c(=O)c2c1 (single isomer, unassigned) [Example 111C] | < 50 µL/min/mg |
| Cc1cc([C@@H](C)Oc2ccccc2S(N)(=O)=O)c2oc(-c3cnn(C)c3)c(C)c(=O)c2c1 [Example 103C, 2-[(1R)-1-[3,6-Dimethyl-2-(1-methylpyrazol-4-yl)-4-oxo-chromen-8-yl]ethoxy]benzenesulfonamide] | < 50 µL/min/mg |
| Cc1cc([C@@H](C)Oc2ccc(Cl)nc2S(N)(=O)=O)c2oc(-c3cncnc3)c(C)c(=O)c2c1 [Example 38A, 6-Chloro-3-[(1R)-1-(3,6-dimethyl-4-oxo-2-pyrimidin-5-yl-chromen-8-yl)ethoxy]pyridine-2-sulfonamide] | < 50 µL/min/mg |
| Cc1cc([C@@H](C)Oc2ccc(F)c(F)c2C(N)=O)c2oc(-c3cnn(C)c3)c(C)c(=O)c2c1 [Example 31A, 6-[(1R)-1-[3,6-Dimethyl-2-(1-methylpyrazol-4-yl)-4-oxo-chromen-8-yl]ethoxy]-2,3-difluoro-benzamide] | < 50 µL/min/mg |
| Cc1cc([C@@H](C)Oc2ccc(F)nc2S(N)(=O)=O)c2oc(-c3cnc4ccoc4c3)c(C)c(=O)c2c1 [Example 73C, 6-Fluoro-3-[(1R)-1-(2-furo[3,2-b]pyridin-6-yl-3,6-dimethyl-4-oxo-chromen-8-yl)ethoxy]pyridine-2-sulfonamide] | < 50 µL/min/mg |
| Cc1cc([C@@H](C)Oc2ccc(Cl)nc2-c2noc(=O)[nH]2)c2oc(-c3cnn4c3CCC4)c(C)c(=O)c2c1 [Example 102A, 3-[6-Chloro-3-[(1R)-1-[2-(5,6-dihydro-4H-pyrrolo[2,1-e]pyrazol-3-yl)-3,6-dimethyl-4-oxo-chromen-8-yl]ethoxy]-2-pyridyl]-4H-1,2,4-oxadiazol-5-one] | < 50 µL/min/mg |
| Cc1cc([C@@H](C)Oc2cccnc2C(=O)NOC(C)(C)C)c2oc(-c3ccc4nn(C)cc4c3)c(C)c(=O)c2c1 [Example 24A, N-tert-Butoxy-3-[(1R)-1-[3,6-dimethyl-2-(2-methylindazol-5-yl)-4-oxo-chromen-8-yl]ethoxy]pyridine-2-carboxamide] | < 50 µL/min/mg |
| Cc1cc([C@@H](C)Oc2ccc(Cl)nc2S(N)(=O)=O)c2oc(-c3cnn(C)c3C#N)c(C)c(=O)c2c1 [Example 21C, 6-Chloro-3-[(1R)-1-[2-(5-cyano-1-methyl-pyrazol-4-yl)-3,6-dimethyl-4-oxo-chromen-8-yl]ethoxy]pyridine-2-sulfonamide] | < 50 µL/min/mg |

Other lines, results leading:

| microsomal CLint at 1 μM | Structure (SMILES) |
| --- | --- |
| < 50 µL/min/mg | Cc1cc([C@@H](C)Oc2ccc(Cl)nc2C(N)=O)c2oc(-c3ccc4c(c3)C(C)(C)OC(=O)N4)c(C)c(=O)c2c1 [Example 47C, 6-Chloro-3-[(1R)-1-[2-(4,4-dimethyl-2-oxo-1H-3,1-benzoxazin-6-yl)-3,6-dimethyl-4-oxo-chromen-8-yl]ethoxy]pyridine-2-carboxamide] |
| < 50 µL/min/mg | Cc1cc([C@@H](C)Oc2ccc(Cl)nc2S(N)(=O)=O)c2oc(-c3ccn[nH]3)c(C)c(=O)c2c1 [Example 8C, 6-Chloro-3-[(1R)-1-[3,6-dimethyl-4-oxo-2-(1H-pyrazol-5-yl)chromen-8-yl]ethoxy]pyridine-2-sulfonamide] |
| < 50 µL/min/mg | Cc1cc([C@@H](C)Oc2ccc(Cl)nc2C(N)=O)c2oc(-c3cnc4nn(C)cc4c3)c(C)c(=O)c2c1 [Example 137A, 6-Chloro-3-[(1R)-1-[3,6-dimethyl-2-(2-methylpyrazolo[3,4-b]pyridin-5-yl)-4-oxo-chromen-8-yl]ethoxy]pyridine-2-carboxamide] |
| < 50 µL/min/mg | Cc1cc([C@@H](C)Oc2ccc(Cl)nc2S(N)(=O)=O)c2oc(-c3ccc4nn(C)cc4n3)c(C)c(=O)c2c1 [Example 5B, 6-Chloro-3-[(1R)-1-[3,6-dimethyl-2-(2-methylpyrazolo[4,3-b]pyridin-5-yl)-4-oxo-chromen-8-yl]ethoxy]pyridine-2-sulfonamide] |
| < 50 µL/min/mg | Cc1cc([C@@H](C)Oc2ccc(C#N)cc2C(N)=O)c2oc(-c3ccc4nn(C)cc4c3)c(C)c(=O)c2c1 [Example 108C, 5-Cyano-2-[(1R)-1-[3,6-dimethyl-2-(2-methylindazol-5-yl)-4-oxo-chromen-8-yl]ethoxy]benzamide] |
| < 50 µL/min/mg | Cc1cc([C@@H](C)Oc2ccc(Cl)nc2C(N)=O)c2oc(-c3cnn4ncccc34)c(C)c(=O)c2c1 [Example 39C, 6-Chloro-3-[(1R)-1-(3,6-dimethyl-4-oxo-2-pyrazolo[1,5-b]pyridazin-3-yl-chromen-8-yl)ethoxy]pyridine-2-carboxamide] |
| < 50 µL/min/mg | Cc1cc([C@@H](C)Oc2cccnc2C(N)=O)c2oc(-c3ccc4nn(C)cc4c3)c(C)c(=O)c2c1 [Example 10A, 3-[(1R)-1-[3,6-Dimethyl-2-(2-methylindazol-5-yl)-4-oxo-chromen-8-yl]ethoxy]pyridine-2-carboxamide] |
| < 50 µL/min/mg | Cc1cc([C@@H](C)Oc2ccc(Cl)nc2C(N)=O)c2oc(-c3cnccn3)c(C)c(=O)c2c1 [Example 78C, 6-Chloro-3-[(1R)-1-(3,6-dimethyl-4-oxo-2-pyrazin-2-yl-chromen-8-yl)ethoxy]pyridine-2-carboxamide] |
| < 50 µL/min/mg | Cc1cc([C@@H](C)Oc2ccc(Cl)nc2C(N)=O)c2oc(-c3cnn4cccnc34)c(C)c(=O)c2c1 [Example 16B, 6-Chloro-3-[(1R)-1-(3,6-dimethyl-4-oxo-2-pyrazolo[1,5-a]pyrimidin-3-yl-chromen-8-yl)ethoxy]pyridine-2-carboxamide] |

Same assay, conditions: pH 7.4; human liver microsomes 0.5 mg/mL, 1 μM compound; read-out: intrinsic clearance in human MICS

| microsomal CLint at 1 μM | Structure (SMILES) |
| --- | --- |
| < 50 µL/min/mg | Cc1cc([C@@H](C)Oc2cccc(F)c2-c2noc(=O)[nH]2)c2oc(-c3ccccc3)c(C)c(=O)c2c1 [Example 5, 3-[2-[(1R)-1-(3,6-Dimethyl-4-oxo-2-phenyl-chromen-8-yl)ethoxy]-6-fluoro-phenyl]-4H-1,2,4-oxadiazol-5-one] |
| < 50 µL/min/mg | Cc1cc([C@@H](C)Oc2ccc(Cl)nc2C(=O)NS(C)(=O)=O)c2oc(-c3ccccc3)c(C)c(=O)c2c1 [Example 6, 6-Chloro-3-[(1R)-1-(3,6-dimethyl-4-oxo-2-phenyl-chromen-8-yl)ethoxy]-N-methylsulfonyl-pyridine-2-carboxamide] |
| < 50 µL/min/mg | Cc1cc([C@@H](C)Oc2cccnc2-c2noc(=O)[nH]2)c2oc(-c3ccccc3)c(C)c(=O)c2c1 [Example 3, 3-[3-[(1R)-1-(3,6-Dimethyl-4-oxo-2-phenyl-chromen-8-yl)ethoxy]-2-pyridyl]-4H-1,2,4-oxadiazol-5-one] |
